Measured values: article PMC8779255, “Determining the Anticancer Activity of Sphingosine Kinase Inhibitors Containing Heteroatoms in Their Tail Structure” (Pharmaceutics, 2022)

Columns and labels:
[1] = system: HCT116 cells; test: Mitochondrial outer membrane potential (MOMP) by JC-10 staining; assay type: cell-based, human; settings: HCT116, 10 and 20 µM, 24 h, vs nontreated control
Method: (§1) To access the mechanism of cell death, mitochondrial outer membrane potential (MOMP) was measured using JC-10 cationic dye. HT29 and HCT116 cells (2.5 × 10^5 cells/well) were seeded in 12-well plates and treated with a test compound for 24 h, collected in 1.5 mL microtubes using trypsin-EDTA, washed with 1× cold PBS, and stained with JC-10 dye prepared in HBSS solution (0.14 M NaCl, 0.005 M KCl, 0.001 M CaCl2, 0.005 M MgSO4. 7H2O, 0.0004 M […], 0.0003 M Na2HPO4-2H2O, 0.0004 M KH2PO4, 0.006 M D-glucose, 0.004 M NaHCO3, 0.002 M HEPES, and 0.02% Pluronic® F-127) for 30 min. Samples were analyzed using MACSQuanta Analyzer 10. Cells with green and red fluorescence were plotted in a dot plot; the ratio of red to green fluorescence was calculated using MACSQuantify^TM version 2.8 software and presented as MOMP of the cells. The experiment was repeated three times (n = 6).

[2] = system: HT29 cells; test: as above; assay type: cell-based, human; settings: HT29, 10 and 20 µM, 24 h, vs nontreated control
Method: as §1

[3] = target: CYP2C9 (Homo sapiens, UniProt P11712); test: Inhibition of CYP enzymes activity, human liver microsomes; settings: human liver microsomes 0.25 mg/mL, 10 μM, diclofenac substrate
Method: By simultaneously analyzing metabolites, the ability of the six compounds to inhibit drug metabolism enzymes was evaluated.
Metabolites of each CYP coenzyme indicator drug generated through the above reaction were analyzed using the Shimadzu Nexera XR system and TSQ vantage (Thermo). The HPLC column was a Kinetex C18 column (2.1 × 100 mm^2, 2.6 μm particle size; Phenomenex, Torrance, CA, USA), and the mobile phase was distilled water (A) containing 0.1% formic acid and acetonitrile (B) containing 0.1% formic acid. […] The generated metabolites were quantified using MRM (Multiple Reaction Monitoring) quantification modes, and data were analyzed using Xcalibur (version 1.6.1).

[4] = system: AKT and ERK phosphorylation in HCT116 cells; test: Western blotting of pAKT and pERK; assay type: cell-based, human; settings: HCT116, 20 µM
Method: The cell lysate was prepared after successive treatment using mammalian protein extraction buffer (Organic buffer + 10 mM NaCl + detergent pH 7.5) mixed with 1% protease/phosphatase inhibitor cocktail; protein was quantified with BCA assay, boiled at 95 °C for 10 min by adding sample loading buffer, separated using SDS-PAGE, and transferred into methanol-activated PVDF membrane. Primary antibodies were probed overnight in PVDF membrane at 4 °C and […] with subsequent HRP anti-mouse and anti-rabbit secondary antibodies at room temperature. Then, membranes were washed with TBST buffer, and images were detected by Amersham Imager 680 (GE Healthcare; Leiden, WZ, The Netherlands) using ECL solution. Band intensities were analyzed and quantified using Image J software (version 1.53i).

Sequence of CYP2C9 (P11712 whole entry): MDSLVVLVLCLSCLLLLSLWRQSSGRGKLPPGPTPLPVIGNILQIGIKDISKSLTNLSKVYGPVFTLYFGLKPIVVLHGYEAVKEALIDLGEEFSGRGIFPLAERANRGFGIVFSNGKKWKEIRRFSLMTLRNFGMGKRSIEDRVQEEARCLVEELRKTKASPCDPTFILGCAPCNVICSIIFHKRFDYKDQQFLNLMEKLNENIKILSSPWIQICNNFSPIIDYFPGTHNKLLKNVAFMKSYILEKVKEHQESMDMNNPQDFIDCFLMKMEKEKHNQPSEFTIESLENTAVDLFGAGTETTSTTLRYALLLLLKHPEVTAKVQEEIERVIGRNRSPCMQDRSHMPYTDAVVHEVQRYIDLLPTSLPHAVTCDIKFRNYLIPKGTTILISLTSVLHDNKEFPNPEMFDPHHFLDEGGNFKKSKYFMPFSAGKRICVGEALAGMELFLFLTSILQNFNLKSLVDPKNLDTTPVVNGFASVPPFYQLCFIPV

CYP2C9 activity (% of control activity) [3]: >100%
Compound: CCCCCCCOc1ccc(CCN2CCN(CCO)CC2)cc1 [Compound 10, 2-(4-(4-(Heptyloxy)phenethyl)piperazin-1-yl)ethanol]
JC-10 dye red to green fluorescence ratio (MOMP) [1]: significantly reduced
JC-10 dye red to green fluorescence ratio (MOMP) [2]: significantly reduced
phosphorylation of AKT and ERK [4]: significantly reduced phosphorylation of AKT and ERK
